The values below come from US20080300243A1, “Amide Derivatives as Ion-Channel Ligands and Pharmaceutical Compositions and Methods of Using the Same” (priority 2005, published 2008).

Each structure is given as a SMILES string.

The nature of series [1]: Half-life in human liver microsomes (HLM). The class given is in vitro ADME. As to conditions: human, human liver microsomes (HLM, HL101), pH 7.4; 1 μM compound, 0.78 mg/mL HLM, 37° C., NADPH. Here is the method:
Test compounds (1 μM) were incubated with 3.3 mM MgCl2 and 0.78 mg/mL HLM (HL101) in 100 mM potassium phosphate buffer (pH 7.4) at 37° C. on the 96-deep well plate. The reaction mixture was split into two groups, a non-P450 and a P450 group. NADPH was only added to the reaction mixture of the P450 group. An aliquot of samples of P450 group was collected at 0, 10, 30, and 60 min time point, where 0 min time point indicated the time when NADPH was added into the reaction mixture of P450 group. An aliquot of samples of non-P450 group was collected at −10 and 65 min time point. Collected aliquots were extracted with acetonitrile solution containing an internal standard. The precipitated protein was spun down in centrifuge (2000 rpm, 15 min). The compound concentration in supernatant was measured by LC/MS/MS system.
The half-life value was obtained by plotting the natural logarithm of the peak area ratio of compounds/internal standard versus time. The slope of the line of best fit through the points yields the rate of metabolism (k). This was converted to a half-life value using following equations:
Exemplary compounds of the invention were tested (1 μM), and were incubated with 3.3 mM MgCl2 and 0.78 mg/mL HLM (HL101) in 100 mM potassium phosphate buffer (pH 7.4) at 37° C. on the 96-deep well plate. The reaction mixture was split into two groups, a non-P450 and a P450 group. NADPH was only added to the reaction mixture of the P450 group. An aliquot of samples of the P450 group was collected at 0, 10, 30, and 60 minute time points, where the 0 minute time point indicated the time when NADPH was added into the reaction mixture of the P450 group. An aliquot of samples of the non-P450 group was collected at −10 and 65 minute time points. Collected aliquots were extracted with an acetonitrile solution containing an internal standard. The precipitated protein was spun down in a centrifuge (2000 rpm, 15 rain). The compound concentration in supernatant was measured by LC/MS/MS system. The half-life value (T1/2) was obtained by plotting the natural logarithm of the peak area ratio of compounds/internal standard versus time. The slope of the line of best fit through the points yields the rate of metabolism (k). This was converted to a half-life value using following equations: Half-life=ln 2/k.
Background: Liver microsomes are a subcellular fraction often used to study metabolism.

Series [2] concerns the target T1, VR1 (Homo sapiens, UniProt Q8NER1). The series is described as follows: Calcium uptake assay, low pH (proton) stimulus. The class given is cell-based. The arrangement: expressed in transfected cells; host or cells: T-REx HEK 293 (Invitrogen), pcDNA5/TO vector. Particulars: HEK293; 0.3 μM compound; low pH agonist; HEK 293 cells expressing hVR1; read-out: Low pH % Inhib. @ 0.3 μM.
Target sequence in this assay (Q8NER1 whole entry): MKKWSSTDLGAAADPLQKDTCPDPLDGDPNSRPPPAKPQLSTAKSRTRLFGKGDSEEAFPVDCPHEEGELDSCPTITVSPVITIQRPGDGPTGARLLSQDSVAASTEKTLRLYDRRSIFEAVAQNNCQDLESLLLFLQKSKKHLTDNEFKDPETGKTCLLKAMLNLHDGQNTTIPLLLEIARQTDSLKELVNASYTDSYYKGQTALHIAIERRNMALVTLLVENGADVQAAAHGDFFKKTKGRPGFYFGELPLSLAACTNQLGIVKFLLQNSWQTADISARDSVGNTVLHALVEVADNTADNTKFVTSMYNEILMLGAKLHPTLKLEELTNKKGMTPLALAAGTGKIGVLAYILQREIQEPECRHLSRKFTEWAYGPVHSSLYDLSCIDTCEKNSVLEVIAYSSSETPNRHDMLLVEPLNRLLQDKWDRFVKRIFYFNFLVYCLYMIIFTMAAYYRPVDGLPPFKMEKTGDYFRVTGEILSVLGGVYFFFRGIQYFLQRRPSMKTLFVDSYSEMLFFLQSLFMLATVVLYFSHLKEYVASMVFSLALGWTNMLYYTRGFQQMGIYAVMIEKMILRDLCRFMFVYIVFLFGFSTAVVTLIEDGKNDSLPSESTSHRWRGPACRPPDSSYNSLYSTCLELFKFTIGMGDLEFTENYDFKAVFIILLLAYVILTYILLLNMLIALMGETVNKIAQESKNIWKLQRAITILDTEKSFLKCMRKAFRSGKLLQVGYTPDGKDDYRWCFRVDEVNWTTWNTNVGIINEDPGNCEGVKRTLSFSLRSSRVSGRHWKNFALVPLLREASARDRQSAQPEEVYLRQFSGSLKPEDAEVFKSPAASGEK

Series [3] concerns the target T1, VR1. The series is described as follows: Acid stimulation assay (FDSS 6000). It counts as cell-based. Details: host or cells: unspecified cell suspension. As to conditions: final assay buffer pH5.8, 15 min pre-incubation. Here is the method:
The Acid-induced changes in the intracellular calcium concentration were monitored using FDSS 6000 (Hamamatsu Photonics, Japan), a fluorometric imaging system. The cell suspension in resting buffer (HBSS supplemented with […], pH 7.4) was pre-incubated with varying concentrations of the test compounds or resting buffer (buffer control) for 15 minutes at room temperature under dark conditions. The cells were automatically added the stimulating solution (HBSS supplemented with MES, final assay buffer pH5.8) by the FDSS 6000.
Target sequence in this assay (Q8NER1 whole entry, species assumed): as the sequence (Q8NER1 whole entry) above

In series [4] the target is T1, VR1. Kind of series: Calcium uptake assay, capsaicin stimulus. The class given is cell-based. The arrangement: expressed in transfected cells; host or cells: T-REx HEK 293 (Invitrogen), pcDNA5/TO vector. Particulars: 3 nM compound.
Target sequence in this assay (Q8NER1 whole entry): as above
A further series deals with T2, VR1 receptor (Rattus norvegicus, UniProt O35433).
T2 construct: endogenous in cells; host or cells: dorsal root ganglion (DRG) neurons
The series is described as follows: Calcium imaging assay in DRG neurons, capsaicin stimulus. The class given is cell-based. As to conditions: for inhibition of the Capsaicin induced intracellular calcium response (FIG. 1): 3 nM compound, DRG neurons. How it is done: Therefore the functional activity of compounds at the VR1 receptor may be determined by measuring changes in intracellular calcium levels in neurons such as the dorsal root ganglion. […] Prior to assay, cells were loaded with 5 μg/ml Fura2 in normal saline solution at 37° C. for 40 minutes. Cells were then washed with normal saline to remove dye before commencement of the experiment. The plated neurons were transferred into a chamber on the stage of a Nikon eclipse TE300 microscope after which neurons were allowed to attain a stable fluorescence for about 10 minutes before beginning the experiment. The assay consists of two stages, a pretreatment phase followed by a treatment phase. First, a solution of the test compound was added from a multivalve perfusion system to the cells for 1 minute (pretreatment). […] Fura2 was excited at 340 and 380 nm to indicate relative calcium ion concentration. Changes in wavelength measurements were made throughout the course of the experiment. The fluorescence ratio was calculated by dividing fluorescence measured at 340 nm by that at 380 nm. Data were collected using Intelligent Imaging's Slidebook software.

T2 sequence (O35433 whole entry): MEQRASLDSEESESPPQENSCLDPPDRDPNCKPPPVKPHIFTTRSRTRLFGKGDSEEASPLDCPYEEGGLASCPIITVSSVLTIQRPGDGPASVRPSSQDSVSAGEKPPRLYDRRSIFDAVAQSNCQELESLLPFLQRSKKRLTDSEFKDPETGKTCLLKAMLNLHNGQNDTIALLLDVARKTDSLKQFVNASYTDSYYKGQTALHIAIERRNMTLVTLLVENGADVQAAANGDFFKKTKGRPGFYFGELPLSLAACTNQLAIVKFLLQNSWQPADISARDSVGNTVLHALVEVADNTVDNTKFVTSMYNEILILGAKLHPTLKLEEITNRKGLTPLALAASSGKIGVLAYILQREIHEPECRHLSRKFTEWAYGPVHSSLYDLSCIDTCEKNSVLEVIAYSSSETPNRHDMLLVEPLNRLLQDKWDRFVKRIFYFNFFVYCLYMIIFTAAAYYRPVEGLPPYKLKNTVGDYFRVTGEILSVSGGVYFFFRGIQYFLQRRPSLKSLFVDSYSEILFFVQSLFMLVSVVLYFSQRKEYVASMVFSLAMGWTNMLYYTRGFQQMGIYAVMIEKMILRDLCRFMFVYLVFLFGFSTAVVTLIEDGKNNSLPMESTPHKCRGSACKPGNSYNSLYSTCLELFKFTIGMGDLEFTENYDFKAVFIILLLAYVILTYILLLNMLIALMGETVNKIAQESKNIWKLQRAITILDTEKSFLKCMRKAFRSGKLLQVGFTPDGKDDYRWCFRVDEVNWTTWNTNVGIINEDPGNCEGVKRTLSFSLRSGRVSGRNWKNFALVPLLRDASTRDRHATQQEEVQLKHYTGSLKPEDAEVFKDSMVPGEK

For orientation: half-life means how long it takes for the measured level to halve. A lower half-life goes with fast loss. By IC50 is commonly meant the concentration needed to halve the response being measured. Read a high IC50 as weaker potency in that assay. For `O=C(Nc1cccc2cnccc12)c1ccc(/C=C/C(F)(F)F)cc1` [Compound 35], the half-life at 1 μM in series [1] is 0.49 h. Moreover, the inhibition at 0.3 µM at VR1 [2] amounted to 106%. For the same compound, the 50% inhibitory concentration (IC50) at VR1 [3] worked out at 2.5 nM.
Regarding `O=C(Nc1cccc2cnccc12)c1ccc(C#CC(F)(F)F)cc1` [Compound 45], the half-life at 1 μM in series [1] is 0.02 h. Moreover, the “inhibition of the Capsaicin induced intracellular calcium response (FIGS. 2-6)” value at VR1 [4] is “significant inhibition”. Also, at VR1 [2], the inhibition at 0.3 µM was determined as 99%. For the same compound, on VR1 [3], it took 1 nM to reach half-maximal inhibition (IC50).
The corresponding values for `C/C(=C\C(F)(F)F)c1ccc(C(=O)Nc2ccc3c(c2)OCCN3)cc1` [Compound 96] are 0.34 h, “significant inhibition”, 99% and 3 nM.
Take `O=C(Nc1ccc2c(c1)OC[C@@H](CO)O2)c1ccc(/C=C/C(F)(F)F)cc1` [Compound 107]: on VR1 [2], the inhibition at 0.3 µM worked out at 116%. The 50% inhibitory concentration (IC50) against VR1 [3] stood at 5 nM.
In series [1], `O=C(Nc1ccc2c(c1)OCC(CO)N2)c1ccc(/C=C/C(F)(F)F)cc1` (stereo not drawn) [Compound 111] showed a half-life at 1 μM of 0.75 h. Also, at VR1 [2], the inhibition at 0.3 µM was found to be 116%. The compound also registered an IC50 at VR1 [3] of 5 nM.
The corresponding values for `Cc1cc(/C=C/C(F)(F)F)ccc1C(=O)Nc1ccc2c(c1)OCCN2` [Compound 118] are 1.03 h, 103% and 5 nM.
Taken in the same sequence, the figures for `O=C(Nc1ccc2c(c1)OCC(CO)N2)c1ccc(C#CC2CC2)cc1F` (stereo not drawn) [Compound 127] were 1.37 h, 100% and 5 nM.
For `CC(C)(C)C#Cc1ccc(C(=O)Nc2ccc3c(c2)OCC(CO)N3)c(F)c1` (stereo not drawn) [Compound 138], the inhibition at 0.3 µM at VR1 [2] was 107%. Moreover, the IC50 on VR1 [3] stood at 3 nM.
Take `Cc1cc(C#CC(C)(C)C)ccc1C(=O)Nc1cccc2cnccc12` [Compound 163]: in series [1], the half-life at 1 μM is 1.16 h. Also, at VR1 [2], the inhibition at 0.3 µM is 98%.
Taken in the same sequence, the figures for `CC(C)(C)C#Cc1ccc(C(=O)Nc2cnc3ccccc3c2)c(Cl)c1` [Compound 164] were 2.03 h and 105%.
As for `CC(C)(C)C#Cc1cc(F)c(C(=O)Nc2cccc3cnccc23)c(F)c1` [Compound 166], at VR1 [2], the inhibition at 0.3 µM amounted to 99%. Further, the midpoint of inhibition at VR1 [3], the IC50, lay at 8 nM.
As for `Cc1cc(C#CC(C)(C)C)ccc1C(=O)Nc1ccc2c(c1)OCC(CO)N2` (stereo not drawn) [Compound 167], the “inhibition of the Capsaicin induced intracellular calcium response (FIGS. 2-6)” value on VR1 [4] was “significant inhibition”. In addition, the inhibition at 0.3 µM on VR1 [2] amounted to 107%. Moreover, the IC50 at VR1 [3] was found to be 7 nM.
For the compound `CC(C)(C)C#Cc1ccc(C(=O)Nc2ccc3c(c2)OC[C@@H](CO)N3)c(F)c1` [Compound 170], the inhibition at 0.3 µM at VR1 [2] was determined as 108%. Also, on VR1 [3], the IC50 is 3 nM.
In turn, `CC(C)(C)C#Cc1ccc(C(=O)Nc2ccc3c(c2)OC[C@H](CO)N3)c(F)c1` [Compound 172] gave a half-life at 1 μM in series [1] of 1.24 h. Besides, on VR1 [2], the inhibition at 0.3 µM was determined as 109%. The IC50 at VR1 [3] came out at 3 nM.
For the compound `COc1c(C#CC(C)(C)C)ccc(C(=O)Nc2cccc3cnccc23)c1F` [Compound 176], at VR1 [2], the inhibition at 0.3 µM came to 89%. The midpoint of inhibition against VR1 [3], the IC50, lay at 4 nM.
Turning to `Cc1cc(C#CC(C)(C)C)ccc1C(=O)Nc1cnc2ccccc2c1` [Compound 181], the half-life at 1 μM in series [1] is 1.02 h. The inhibition at 0.3 µM at VR1 [2] turned out to be 102%.
In series [1], `Cc1cc(C#CC(C)(C)C)ccc1C(=O)Nc1ccc2c(c1)OC[C@@H](CO)N2` [Compound 184] gave a half-life at 1 μM of 0.64 h. Further, the inhibition at 0.3 µM at VR1 [2] came to 102%.
With `Cc1cc(/C=C/C(F)(F)F)ccc1C(=O)Nc1cnc2ccccc2c1` [Compound 187], the half-life at 1 μM in series [1] was 9.47 h. The “inhibition of the Capsaicin induced intracellular calcium response (FIGS. 2-6)” value on VR1 [4] is recorded as “significant inhibition”. In addition, the inhibition at 0.3 µM at VR1 [2] worked out at 98%. The IC50 at VR1 [3] turned out to be 3 nM.
On to `Cc1nc2cc(NC(=O)c3ccc(/C=C/C(F)(F)F)cc3C)ccc2s1` [Compound 188], for which, in series [1], the half-life at 1 μM was 1.34 h. Moreover, on VR1 [2], the inhibition at 0.3 µM came to 83%.
Turning to `O=C(Nc1ccc2c(c1)OC[C@H](CO)N2)c1ccc(/C=C/C(F)(F)F)cc1F` [Compound 193], the inhibition at 0.3 µM at VR1 [2] was found to be 103%. For the same compound, the IC50 against VR1 [3] is 3 nM.
`Cc1cc(C#CC(C)(C)C)ccc1C(=O)Nc1ccc2c(c1)OC[C@H](CO)N2` [Compound 194]: the inhibition at 0.3 µM at VR1 [2] was 102%. The compound also yielded an IC50 against VR1 [3] of 3 nM.
Taken in the same sequence, the figures for `Cc1cc(/C=C/C(F)(F)F)ccc1C(=O)Nc1ccc2c(c1)OC[C@H](CO)N2` [Compound 195] were 60% and 3 nM.
Taken in the same sequence, the figures for `Cc1cc(C#CC(C)(C)C)ccc1C(=O)Nc1ccc2sc(CO)nc2c1` [Compound 197, N-(2-(hydroxymethyl)benzo[d]thiazol-5-yl)-2-methyl-4-(3,3-dimethylbut-1-ynyl)benzamide] were 107% and 3 nM.
In the case of `Cc1cc(C#CC(C)(C)C)ccc1C(=O)Nc1ccc2scnc2c1` [Compound 198, N-(benzo[d]thiazol-5-yl)-2-methyl-4-(3,3-dimethylbut-1-ynyl)benzamide], the inhibition at 0.3 µM on VR1 [2] was found to be 101%. Further, the IC50 against VR1 [3] was 3 nM.
Taken in the same sequence, the figures for `Cc1cc(/C=C/C(C)(C)C)ccc1C(=O)Nc1cnc2ccccc2c1` [Compound 210] were 106% and 3 nM.
Taken in the same sequence, the figures for `Cc1cc(C#CC(C)(C)C)ccc1C(=O)Nc1ccc2[nH]cnc2c1` [Compound 214] were 74% and 3 nM.
With `Cc1cc(/C=C/C(F)(F)F)ccc1C(=O)Nc1ccc2sc(CO)nc2c1` [Compound 225], the “inhibition of the Capsaicin induced intracellular calcium response (FIG. 1)” value on VR1 receptor is listed as “significant inhibition”; on VR1 receptor (listed as compound 225) it was “reduced”. Moreover, on VR1 receptor (DRG neuron, read-out: % inhibition of capsaicin induced calcium influx), the inhibition at 0.003 µM is greater than 75%. In series [1], this compound showed a half-life at 1 μM of 3.26 h. For the same compound, the inhibition at 0.3 µM on VR1 [2] came out at 110%. For the same compound, on VR1 [3], the IC50 worked out at 0.9 nM.
In series [1], `Cc1cc(/C=C/C(F)(F)F)ccc1C(=O)Nc1ccc2cc(CO)cnc2c1` [Compound 228] had a half-life at 1 μM of 1.27 h. Further, on VR1 [2], the inhibition at 0.3 µM was 100%.
Take `Cc1cc(/C=C/C(F)(F)F)ccc1C(=O)Nc1cnc2c(c1)OCC(CO)N2` (stereo not drawn) [Compound 233]: at VR1 [4], the “inhibition of the Capsaicin induced intracellular calcium response (FIGS. 2-6)” value was “significant inhibition”. Moreover, on VR1 [2], the inhibition at 0.3 µM is 100%. At VR1 [3], this compound yielded an IC50 of 3 nM.
